According to patent US20260306485A1, “COMPOSITIONS AND METHODS FOR THE TREATMENT OF CONGENITAL ADRENAL HYPERPLASIA” (CRINETICS PHARMACEUTICALS, INC., priority 2023, published 2026):

Tests used:
Type in all cases: in vivo, human
[1] = test system: serum 17-hydroxyprogesterone (17-OHP); test: Phase 2 CAH study, Cohort 1 initial analysis: morning serum 17-hydroxyprogesterone (17-OHP); conditions: 80 mg QD oral; for 17-OHP reduction (mean±SD): baseline 4740 to 6905 ng/dL
From the text: The secondary efficacy objective is to evaluate the efficacy of CRN04894, measured by the change from baseline in serum 17-hydroxyprogesterone (17-OHP), with the secondary efficacy endpoint being the change from baseline in the morning (before 11:00 AM) serum 17-OHP at week 12.
(§1) Up to approximately 30 participants will be enrolled in the study. Each cohort will enroll at least 6 participants, with a possible expansion of up to an additional 6 participants in cohorts 1 and 2, to a maximum of 12 evaluable participants in those cohorts. The treatment duration will be up to Day 84 (12 Weeks) per participant. The total study duration will be up to 140 days (up to 4 weeks of screening, 12 weeks of treatment, and 4 weeks of follow-up) per participant. The visit frequency will be at Screening (2 visits), on Day 1 (Baseline), and at Weeks 2 (Day 14), 6 (Day 42), and 12 (Day 84). A Safety Follow-up Visit will occur 2 weeks following the last dose of CRN04894 (Week 14; Day 98), and a telephone call to collect any adverse events (AEs) will occur at 4 weeks after the last dose of CRN04894 (Week 16, Day 112). The study design is discussed in detail below.
(§2) Participants in all cohorts will continue their preexisting glucocorticoid replacement dosing regimens/doses throughout the study. In addition, starting the night of Day 1 and ending the night before the Week 12/end of treatment (EOT) visit, each cohort will administer CRN04894 between 22:00-24:00 (at approximately the same time each night) once daily (QD) before sleep.
(§3) Participants in Cohort 1 will receive 80 mg of CRN04894 QD. After at least 3 participants have completed 2 weeks of dosing with 80 mg of CRN04894 QD in Cohort 1, an interim analysis evaluating PD, PK, efficacy, and safety will be reviewed by the Safety Review Committee (SRC). If it is safe to continue, the SRC will recommend dosing of 120 mg of CRN04894 in Cohort 2. However, the SRC can recommend a lower dose (i.e., 40 mg of CRN04894 QD) in Cohort 2 based on review of safety data. The SRC also has the option to recommend increasing enrollment up to a total of 12 participants each in Cohorts 1 and/or 2. In this situation, expanded enrollment in the cohort will be completed, and data from the expanded cohort will be reviewed by the SRC prior to enrollment in the subsequent cohort.
(§4) A pharmacodynamic biomarker panel will be drawn. The biomarker panel will include the following: • 17-hydroxyprogesterone (17-OHP); • Adrenocorticotropic hormone (ACTH) (plasma); • Testosterone; • Androstenedione (A4); • Dehydroepiandrosterone (DHEA); • Dehydroepiandrosterone sulfate (DHEA-S); • 11-deoxycorticosterone (11-DOC); • 21-deoxycortisol; • 11β-hydroxyandrostenedione (11-OHA4); • 11-ketoandrostenedione (11-ketoA4); • 11β-hydroxytestosterone (11-OHT); • 11-ketotestosterone (11-ketoT); • Aldosterone; and • Renin.
(§5) Visits 2-7: Prior to receiving the morning GC replacement dose, a total of 2 blood draws (approximately 1 hour apart) for PD biomarkers will be drawn. The drawing of the PD biomarkers should be one of the first visit activities performed at the start of the visit. Visits should start as early in the morning as possible (preferably 07:00-08:00), so as to minimize any delay in administration of the morning GC dose and the timing of each study visit should be as consistent as possible. The second set of PD biomarkers should be drawn no later than 11:00 am.
(§6) The initial analysis summarizes the data of four participates (n=4) of Cohort 1 who received 80 mg of CRN04894 QD. There were three female/women participants (n=3) and one male/men participant (n=1).
(§7) Cohort 1 initial analysis of % changes in values from baseline of morning serum A4, morning serum 17-OHP, morning serum testosterone in females, morning serum testosterone in males, and morning serum A4/testosterone in males are presented in Table 4 below. These changes from baseline are also depicted in FIG. 1, FIG. 2, FIG. 4, FIG. 5, and FIG. 10, respectively. […]

[2] = test system: plasma adrenocorticotropic hormone (ACTH); test: Phase 2 CAH study, Cohort 1 initial analysis: morning plasma ACTH; conditions: 80 mg QD oral; for variation in ACTH levels during treatment: morning, baseline 155 to 1009 pg/mL
From the text: as §1, §2, §3, §4
(§8) Visits 2-7: Prior to receiving the morning GC replacement dose, a total of 2 blood draws (approximately 1 hour apart) for PD biomarkers will be drawn. […]

[3] = Phase 2 CAH study, Cohort 1 initial analysis: menstruation; conditions: 80 mg QD oral; three female participants in cohort
From the text: as §1, §2
Participants in Cohort 1 will receive 80 mg of CRN04894 QD. […]

[4] = test system: serum testosterone (male/men); test: Phase 2 CAH study, Cohort 1 initial analysis: morning serum testosterone, male participants; conditions: 80 mg QD oral, n=1
From the text: as §1, §2, §3, §4, §8

[5] = test system: serum androstenedione (A4); test: Phase 2 CAH study, Cohort 1 initial analysis: morning serum androstenedione (A4); conditions: 80 mg QD oral; for A4 reduction (mean±SD): morning, baseline 116 to 604 ng/dL
From the text: The primary efficacy objective is to evaluate the efficacy of CRN04894, measured by the change from baseline in serum androstenedione (A4), with the primary efficacy endpoint being the change from baseline in the morning (before 11:00 AM) serum A4 at week 12.
as §1, §2, §3, §4, §5, §6, §7

[6] = test system: serum testosterone (female/women); test: Phase 2 CAH study, Cohort 1 initial analysis: morning serum testosterone, female participants; conditions: 80 mg QD oral; for testosterone reduction (mean±SD), female participants: morning, baseline 114 ng/dL
From the text: as §1, §2, §3, §4, §5, §6
(§9) Cohort 1 initial analysis of % changes in values from baseline of morning serum A4, morning serum 17-OHP, morning serum testosterone in females, morning serum testosterone in males, and morning serum A4/testosterone in males are presented in Table 4 below. These changes from baseline are also depicted in FIG. 1, FIG. 2, FIG. 4, FIG. 5, and FIG. 10, respectively.
(§10) Patients (aged ≥18 to 75, ≥16 years in USA) with classical CAH on a stable dose of glucocorticoid replacement for at least six months were enrolled and received 80 mg once daily, oral CRN04894 for 12 weeks followed by a four-week washout. […]

[7] = test system: serum A4/testosterone (male/men); test: Phase 2 CAH study, Cohort 1 initial analysis: morning serum A4/testosterone, male participants; conditions: 80 mg QD oral, n=1; for A4/T ratio in the patient: baseline 0.3, normal <0.2
From the text: as §1, §2, §3, §4, §5, §6, §9, §10

In the case of `CCOc1ccccc1-c1ccc(N2CCN(C(=O)C3(C(F)(F)F)CCC3)C[C@H]2CC)c(C(=O)N[C@@H]2CN3CCC2CC3)n1` [CRN04894, N-[(3S)-1-Azabicyclo[2.2.2]octan-3-yl]-6-(2-ethoxyphenyl)-3-[(2R)-2-ethyl-4-[1-(trifluoromethyl)cyclobutanecarbonyl]-piperazin-1-yl]pyridine-2-carboxamide], the “% Change in morning 17-OHP” value ([1]; Mean, Week 2, n=4) is reported as −96%, the “% Change in morning 17-OHP” value ([1]; Mean, Week 6, n=4) is reported as −97% and the “% Change in morning 17-OHP” value ([1]; Mean, Week 12, n=2) is reported as −83%. For the same compound, the “% Change in morning 17-OHP” value ([1]; Median, Week 2, n=4) was −96%, the “% Change in morning 17-OHP” value ([1]; Median, Week 6, n=4) was −97% and the “% Change in morning 17-OHP” value ([1]; Median, Week 12, n=2) was −83%. The “17-OHP reduction (mean±SD)” value ([1]; Week 2, n=4) was 96%±2%, the “17-OHP reduction (mean±SD)” value ([1]; Week 6, n=4) was 97%±0.3% and the “17-OHP reduction (mean±SD)” value ([1]; Week 12, n=2) was 83%±22%. For the same compound, the “17-OHP reduction, onset and maintenance” value ([1]; all participants) was “rapid and profound 17-OHP reduction within two weeks, which were maintained for the duration of therapy”, the “ACTH levels, trend during treatment” value ([2]; in words) was “Modest variations in ACTH levels without a consistent directional trend” and the “variation in ACTH levels during treatment” value (from here on “variation”) ([2]; Week 2, n=4) was −25%±57%. The “variation” value ([2]; Week 6, n=4) was 51%±87%, the “variation” value ([2]; Week 12, n=2) was −13%±67% and the “menstruation in female participants” value [3] was “Two female participants in this cohort menstruated for the first time in over 2 years”. The “% Change in morning testosterone (male/men)” value ([4]; Mean, Week 2) was 9%, the “% Change in morning testosterone (male/men)” value ([4]; Mean, Week 6) was 11% and the “% Change in morning testosterone (male/men)” value ([4]; Median, Week 2) was 9%. The “% Change in morning testosterone (male/men)” value ([4]; Median, Week 6) was 11%, the “% Change in morning serum A4” value ([5]; Mean, Week 2, n=4) was −86% and the “% Change in morning serum A4” value ([5]; Mean, Week 6, n=4) was −90%. The “% Change in morning serum A4” value ([5]; Mean, Week 12, n=2) was −88%, the “% Change in morning serum A4” value ([5]; Median, Week 2, n=4) was −88% and the “% Change in morning serum A4” value ([5]; Median, Week 6, n=4) was −94%. For the same compound, the “% Change in morning serum A4” value ([5]; Median, Week 12, n=2) was −88%, the “A4 reduction (mean±SD)” value ([5]; Week 2, n=4) was 86%±10% and the “A4 reduction (mean±SD)” value ([5]; Week 6, n=4) was 90%±9%. The “A4 reduction (mean±SD)” value ([5]; Week 12, n=2) was 88%±15%, the “A4 reduction, onset and maintenance” value ([5]; all participants) was “rapid and profound A4 reduction within two weeks, which were maintained for the duration of therapy” and the “A4 levels relative to upper limit of normal” value ([5]; all visits following treatment, normal 30-200 ng/dL females, 40-150 ng/dL males) was “all A4 levels ending below the upper limit of normal (<ULN) at all visits following treatment”. The “% Change in morning testosterone (female/women)” value (from here on “% Change … (female/women)”) ([6]; Mean, Week 2, n=3) was −61%, the “% Change … (female/women)” value ([6]; Mean, Week 6, n=3) was −65% and the “% Change … (female/women)” value ([6]; Mean, Week 12, n=2) was −97%. The “% Change … (female/women)” value ([6]; Median, Week 2, n=3) was −86%, the “% Change … (female/women)” value ([6]; Median, Week 6, n=3) was −96% and the “% Change … (female/women)” value ([6]; Median, Week 12, n=2) was −97%. The “testosterone reduction (mean±SD), female participants” value (“testosterone reduction (mean±SD)” for short) ([6]; Week 2, n=3) was 61%±53%, the “testosterone reduction (mean±SD)” value ([6]; Week 6, n=3) was 65%±56% and the “testosterone reduction (mean±SD)” value ([6]; Week 12, n=2) was 97%±1%. For the same compound, the “% Change in morning A4/testosterone (male/men)” value ([7]; Mean, Week 2) was −73%, the “% Change in morning A4/testosterone (male/men)” value ([7]; Mean, Week 6) was −79% and the “% Change in morning A4/testosterone (male/men)” value ([7]; Median, Week 2) was −73%. The “% Change in morning A4/testosterone (male/men)” value ([7]; Median, Week 6) was −79%, the “A4/T ratio in the patient” value ([7]; week 2) was 0.08 and the “A4/T ratio in the patient” value ([7]; week 6) was 0.06.
